Where two headings read alike, the source gives them in different places.
What was measured:
Plutella xylostella [1] = assay: whole plant or invertebrate; format: in vivo
Method: (§1) After an air drying process, second instar larvae were released thereto. […] The test was performed in duplicate.
(§2) Method for Judging Synergistic Effects

[2] = tested on: Haemaphysalis longicornis; assay: whole plant or invertebrate; format: in vivo; details: for mortality at 0.00038 mg: read-out: Mortality of single agent against Haemaphysalis longicornis, single agent 0.38 μg
Method: A capsule with a diameter of 2 cm and a height of 2 cm was attached to the dorsal surface of a mouse. A compound of Formula (I), ivermectin, moxidectin, permethrin, amitraz, fipronil, spinetram and the mixture of the compound of Formula (I) and each insecticide were dissolved in ethanol at the concentrations given in […], and each of these was dripped onto the surface of a mouse body within a capsule. After thorough drying, eight Haemaphysalis longicornis nymphs were released and the top of the capsule was sealed with a lid. The mouse was kept in a cage at 25° C. using a 12-hour light period and a 12-hour dark period. Five days after the release, the capsule was removed and the number of surviving and dead nymphs and the number of engorged individuals were counted and the insect mortality and agonal rate was calculated by the following equation. Insect mortality and agonal rate (%)={number of dead and agonal insects/(number of survived insects+number of dead and agonal insects)}×100

Laodelphax striatella [3] = assay: whole plant or invertebrate; details: for mortality at 0.05 mg/seedling: read-out: Mortality of single agent against Laodelphax striatella, single agent 0.05 mg/Seedling; for mortality at 0.005 mg/seedling: read-out: Mortality of single agent against Laodelphax striatella, single agent 0.005 mg/Seedling; for Theoretical value by Colby's equation: Laodelphax striatella soil irrigation
Method: After the rice seedling was left to stand for 3 days, second instar larvae were released thereto. Thereafter, the larvae were left to stand in a thermostatic chamber (16 hours of light period-8 hours of dark period) at 25° C. […] The test was performed in duplicate. Mortality of larvae (%)={number of dead larvae/(number of survived larvae+number of dead larvae)}×100
B: 100−(mortality of larvae or adults when treated only with each of imidacloprid, fipronil, chlorantraniliprole, spinosad, clothianidin, dinotefuran, sulfoxaflor, pymetrozine, thiamethoxam, flupyradifurone and cycloxaprid))
as §2
When the mortality against Laodelphax striatella in the case of a mixture with another agent exceeded the theoretical value by the Colby's equation, a synergistic effect was judged to be present.

Spodoptera litura = assay: whole plant or invertebrate; format: in vivo
Method: After an air drying process, third instar larvae were released thereto. […] The test was performed in duplicate.
as §2

Chilo suppressalis = format: in vivo; details: soil irrigation, six days after release
Method: After standing for 3 days, second instar larvae were released thereto. […] The test was performed in duplicate.
as §2

Plutella xylostella [4] = assay: Reference Test Example 1 Pest control test of Plutella xylostella (foliar treatment, single agent); format: in vivo; design: Plutella xylostella (Reference Test Example 1), mortality of larvae: concentration or dose not given beside the values; details: foliar treatment, single agent
Excerpt: After an air drying process, second instar larvae were released thereto. […] Test in duplicate.

Aphis gossypii = assay: Reference Test Example 3 Pest control test of Aphis gossypii (foliar treatment, single agent); format: in vivo; design: Aphis gossypii (Reference Test Example 3), mortality of larvae: concentration or dose not given beside the values; details: foliar treatment, single agent
Laodelphax striatella [5] = assay: Reference Test Example 18 Pest control test of Laodelphax striatella (wheat seedling root treatment); format: in vivo; details: wheat seedling roots treated; four days after release; 20 μg/seedling
Method: The drug was absorbed from the roots for 72 hours, and then ten second instar larvae of Laodelphax striatella were each released thereto. […] The test was performed in duplicate.

Laodelphax striatella [6] = assay: whole plant or invertebrate; format: in vivo
Method: as §1, §2

[7] = Haemaphysalis longicornis, topical, 120 h, capsule on mouse, five days, mortality and agonal rate
[8] = Laodelphax striatellus, soil, 72 h, soil irrigation
[9] = Laodelphax striatellus, foliar, 72 h, read-out: Mortality of single agent against Laodelphax striatella

O=c1c(-c2ccccc2)c([O-])[n+](Cc2ccc(Cl)nc2)c2ccccn12 [1-((6-chloropyridin-3-yl)methyl)-4-oxo-3-phenyl-4H-pyrido[1,2-a]pyrimidin-1-ium-2-olate]
mortality at 1 ppm (Plutella xylostella [1]; Plutella xylostella, foliar, 72 h, read-out: Mortality of single agent against Plutella xylostella, single agent 1 ppm, cabbage leaf disk spray, three days): 30% | Theoretical value by Colby's equation (Plutella xylostella [1]; Plutella xylostella, single agent 1 ppm (other component 0)): 30%

Cc1ccc(/N=C/N(C)/C=N/c2ccc(C)cc2C)c(C)c1 [Amitraz]
mortality at 0.00038 mg [2, 7]: 41%

CNC(=O)c1cc(Cl)cc(C)c1NC(=O)c1cc(Br)nn1-c1ncccc1Cl [Chlorantraniliprole]
Theoretical value by Colby's equation (Plutella xylostella [1]; 0.002 ppm): 60% | mortality at 0.002 ppm (Plutella xylostella [1]; Plutella xylostella, foliar, 72 h, read-out: Mortality of single agent against Plutella xylostella, single agent 0.002 ppm, cabbage leaf disk spray, three days): 60% | mortality at 0.05 mg/seedling (Laodelphax striatella [3]; [8]): 9% | Theoretical value by Colby's equation (Spodoptera litura; 0.02 ppm): 20% | mortality at 0.02 ppm (Spodoptera litura; Spodoptera litura, foliar, 72 h, read-out: Mortality of single agent against Spodoptera litura, single agent 0.02 ppm, cabbage leaf disk spray, three days): 20% | Mortality of single agent against Chilo suppressalis (Chilo suppressalis; single agent 0.0005 mg/seedling): 60%

CN/C(=N\[N+](=O)[O-])NCc1cnc(Cl)s1 [Clothianidin]
mortality at 0.005 mg/seedling (Laodelphax striatella [3]; [8]): 23%

O=C(N=c1ccc(F)cn1Cc1ccc(Cl)nc1)C(F)(F)F [Compound P-216]
Plutella xylostella (Reference Test Example 1), mortality of larvae (Plutella xylostella [4]): 100% | Aphis gossypii (Reference Test Example 3), mortality of larvae (Aphis gossypii): 95% | Laodelphax striatella (Reference Test Example 18), mortality of larvae (Laodelphax striatella [5]): 100%

O=C(N=c1ccccn1Cc1cnc(Cl)c(F)c1)C(F)(F)F [Compound P-227]
Plutella xylostella (Reference Test Example 1), mortality of larvae (Plutella xylostella [4]): 100% | Aphis gossypii (Reference Test Example 3), mortality of larvae (Aphis gossypii): 100% | Laodelphax striatella (Reference Test Example 18), mortality of larvae (Laodelphax striatella [5]): 100%

O=C(N=c1ccccn1Cc1ccc(C(F)(F)F)nc1)C(F)(F)F [Compound P-228]
Plutella xylostella (Reference Test Example 1), mortality of larvae (Plutella xylostella [4]): 30% | Aphis gossypii (Reference Test Example 3), mortality of larvae (Aphis gossypii): 95% | Laodelphax striatella (Reference Test Example 18), mortality of larvae (Laodelphax striatella [5]): 100%

O=C(N=c1ccccn1Cc1ccc(F)nc1)C(F)(F)F [Compound P-229]
Plutella xylostella (Reference Test Example 1), mortality of larvae (Plutella xylostella [4]): 100% | Aphis gossypii (Reference Test Example 3), mortality of larvae (Aphis gossypii): 100% | Laodelphax striatella (Reference Test Example 18), mortality of larvae (Laodelphax striatella [5]): 100%

O=C(N=c1ccccn1Cc1ccc(Br)nc1)C(F)(F)F [Compound P-231]
Plutella xylostella (Reference Test Example 1), mortality of larvae (Plutella xylostella [4]): 100% | Aphis gossypii (Reference Test Example 3), mortality of larvae (Aphis gossypii): 100% | Laodelphax striatella (Reference Test Example 18), mortality of larvae (Laodelphax striatella [5]): 100%

O=C(N=c1ccccn1Cc1ccc(Cl)nc1)C(Cl)Cl [Compound P-234]
Plutella xylostella (Reference Test Example 1), mortality of larvae (Plutella xylostella [4]): 100% | Aphis gossypii (Reference Test Example 3), mortality of larvae (Aphis gossypii): 100% | Laodelphax striatella (Reference Test Example 18), mortality of larvae (Laodelphax striatella [5]): 100%

O=C(N=c1ccccn1Cc1ccc(Cl)nc1)C(Cl)(Cl)Cl [Compound P-235]
Plutella xylostella (Reference Test Example 1), mortality of larvae (Plutella xylostella [4]): 100% | Aphis gossypii (Reference Test Example 3), mortality of larvae (Aphis gossypii): 95% | Laodelphax striatella (Reference Test Example 18), mortality of larvae (Laodelphax striatella [5]): 75%

O=C(N=c1ccccn1Cc1ccc(Cl)nc1)C(F)F [Compound P-238]
Plutella xylostella (Reference Test Example 1), mortality of larvae (Plutella xylostella [4]): 100% | Aphis gossypii (Reference Test Example 3), mortality of larvae (Aphis gossypii): 100% | Laodelphax striatella (Reference Test Example 18), mortality of larvae (Laodelphax striatella [5]): 100%

O=C(N=c1ccccn1Cc1ccc(Cl)nc1)C(F)(F)Cl [Compound P-239]
Plutella xylostella (Reference Test Example 1), mortality of larvae (Plutella xylostella [4]): 100% | Aphis gossypii (Reference Test Example 3), mortality of larvae (Aphis gossypii): 100% | Laodelphax striatella (Reference Test Example 18), mortality of larvae (Laodelphax striatella [5]): 100%

O=C(N=c1ccccn1Cc1ccc(Cl)nc1)C(F)(F)C(F)(F)F [Compound P-242]
Plutella xylostella (Reference Test Example 1), mortality of larvae (Plutella xylostella [4]): 100% | Aphis gossypii (Reference Test Example 3), mortality of larvae (Aphis gossypii): 100% | Laodelphax striatella (Reference Test Example 18), mortality of larvae (Laodelphax striatella [5]): 100%

O=C(N=c1ccccn1Cc1cnc(Cl)nc1)C(F)(F)F [Compound P-243]
Plutella xylostella (Reference Test Example 1), mortality of larvae (Plutella xylostella [4]): 100% | Aphis gossypii (Reference Test Example 3), mortality of larvae (Aphis gossypii): 100% | Laodelphax striatella (Reference Test Example 18), mortality of larvae (Laodelphax striatella [5]): 100%

CNC(=O)c1cc(C#N)cc(C)c1NC(=O)c1cc(Br)nn1-c1ncccc1Cl [Cyantraniliprole]
Mortality of single agent against Chilo suppressalis (Chilo suppressalis; single agent 0.005 mg/seedling): 83%

O=[N+]([O-])C1=C2N(Cc3ccc(Cl)nc3)CCN2[C@H]2CC[C@@H]1O2 [Cycloxaprid]
Theoretical value by Colby's equation (Laodelphax striatella [3]; single agent 0.005 mg/Seedling (other component 0)): 0% | Mortality of single agent against Laodelphax striatella (Laodelphax striatella [3]; single agent 0.005 mg/Seedling, soil irrigation): 0%

CCOc1ccc(C(C)(C)COCc2cccc(Oc3ccccc3)c2)cc1 [Etofenprox]
mortality at 10 ppm (Laodelphax striatella [6]; [9]): 30% | Theoretical value by Colby's equation (Laodelphax striatella [6]; foliar, 10 ppm): 30%

CCc1nc2cc(C)c(Oc3ccc(OC(F)(F)F)cc3)cc2c(OC(=O)OC)c1C [Flometoquin]
Theoretical value by Colby's equation (Plutella xylostella [1]; Plutella xylostella, single agent 0.313 ppm (other component 0)): 0% | Mortality of single agent against Plutella xylostella (Plutella xylostella [1]; single agent 0.313 ppm, cabbage leaf disk spray, three days): 0% | Theoretical value by Colby's equation (Spodoptera litura; Spodoptera litura, single agent 5 ppm (other component 0)): 10% | Mortality of single agent against Spodoptera litura (Spodoptera litura; single agent 5 ppm, cabbage leaf disk spray, three days): 10%

O=C1C=C(N(Cc2ccc(Cl)nc2)CC(F)F)CO1 [Flupyradifurone]
Theoretical value by Colby's equation (Laodelphax striatella [3]; single agent 0.01 mg/Seedling (other component 0)): 5% | Mortality of single agent against Laodelphax striatella (Laodelphax striatella [3]; single agent 0.01 mg/Seedling, soil irrigation): 5%

CC[C@H](C)[C@H]1O[C@]2(CC[C@@H]1C)C[C@@H]1C[C@@H](C/C=C(\C)[C@@H](O[C@H]3C[C@H](OC)[C@@H](O[C@H]4C[C@H](OC)[C@@H](O)[C@H](C)O4)[C@H](C)O3)[C@@H](C)/C=C/C=C3\CO[C@@H]4[C@H](O)C(C)=C[C@@H](C(=O)O1)[C@]34O)O2 [Ivermectin]
Mortality of single agent against Haemaphysalis longicornis ([2]; single agent 0.009 μg, capsule on mouse, five days, mortality and agonal rate): 3%

CO/N=C1\C[C@]2(C[C@@H]3C[C@@H](C/C=C(\C)C[C@@H](C)/C=C/C=C4\CO[C@@H]5[C@H](O)C(C)=C[C@@H](C(=O)O3)[C@]45O)O2)O[C@H](/C(C)=C/C(C)C)[C@H]1C [Moxidectin]
mortality at 9 ng ([2]; Haemaphysalis longicornis, topical, 120 h, read-out: Mortality of single agent against Haemaphysalis longicornis, single agent 0.009 μg, capsule on mouse, five days, mortality and agonal rate): 6%

CC1(C)C(C=C(Cl)Cl)C1C(=O)OCc1cccc(Oc2ccccc2)c1 (centres unmarked) [Permethrin]
mortality at 0.0095 mg ([2]; Haemaphysalis longicornis, topical, 120 h, read-out: Mortality of single agent against Haemaphysalis longicornis, single agent 9.5 μg, capsule on mouse, five days, mortality and agonal rate): 71%

CC1=NNC(=O)N(/N=C/c2cccnc2)C1 [Pymetrozine]
mortality at 0.05 mg/seedling (Laodelphax striatella [3]; [8]): 15%

CCOc1ccc([Si](C)(C)CCCc2ccc(F)c(Oc3ccccc3)c2)cc1 [Silafluofen]
Mortality of single agent (Laodelphax striatella [6]; Laodelphax striatella foliar, single agent 5 ppm (other component 0)): 55% | mortality at 5 ppm (Laodelphax striatella [6]; [9]): 55%

CC(c1ccc(C(F)(F)F)nc1)S(C)(=O)=NC#N (centres unmarked) [Sulfoxaflor]
mortality at 0.005 mg/seedling (Laodelphax striatella [3]; [8]): 1%

CN1COCN(Cc2cnc(Cl)s2)/C1=N\[N+](=O)[O-] [Thiamethoxam]
mortality at 0.01 mg/seedling (Laodelphax striatella [3]; Laodelphax striatellus, soil, 72 h, read-out: Mortality of single agent against Laodelphax striatella, single agent 0.01 mg/Seedling, soil irrigation): 23%

CN/C(=N/CC1CCOC1)N[N+](=O)[O-] (centres unmarked) [dinotefuran]
mortality at 0.0019 mg ([2]; Haemaphysalis longicornis, topical, 120 h, read-out: Mortality of single agent against Haemaphysalis longicornis, single agent 1.9 μg, capsule on mouse, five days, mortality and agonal rate): 0%

N#Cc1nn(-c2c(Cl)cc(C(F)(F)F)cc2Cl)c(N)c1[S+]([O-])C(F)(F)F (centres unmarked) [fipronil]
mortality at 0.00038 mg [2, 7]: 78%

CC(COc1ccc(Oc2ccccc2)cc1)Oc1ccccn1 (centres unmarked) [pyriproxyfen]
mortality at 47.5 ng ([2]; Haemaphysalis longicornis, topical, 120 h, read-out: Mortality of single agent against Haemaphysalis longicornis, single agent 0.0475 μg, capsule on mouse, five days, mortality and agonal rate): 2%

Emamectin benzoate
Theoretical value by Colby's equation (Spodoptera litura; Spodoptera litura, single agent 0.02 ppm (other component 0)): 0% | Mortality of single agent against Spodoptera litura (Spodoptera litura; single agent 0.02 ppm, cabbage leaf disk spray, three days): 0%

spinetoram
Theoretical value by Colby's equation ([2]; Haemaphysalis longicornis, single agent 0.38 μg (other component 0)): 6% | Mortality of single agent against Haemaphysalis longicornis ([2]; single agent 0.38 μg, capsule on mouse, five days, mortality and agonal rate): 6%

spinosad
Theoretical value by Colby's equation ([2]; Haemaphysalis longicornis, single agent 1.9 μg (other component 0)): 2.5% | Mortality of single agent against Haemaphysalis longicornis ([2]; single agent 1.9 μg, capsule on mouse, five days, mortality and agonal rate): 2.5%

Source: patent US11771086B2, “Pest control composition including novel iminopyridine derivative” (priority 2012, dated 2023)
